# Patent US11613547B2 (priority 2019, dated 2023)
# “And” between values parts separate entries of the source, which are not always exact repeats. Identical values can stand only once. Like-named read-outs stand apart in the source and are kept apart here.
# What was measured:
# mMOR [1] = biological target: T1, mMOR (Mus musculus, UniProt P42866); experiment: Radioligand competition binding ([125I]IBNtxA), CHO membranes, mMOR; conditions: vs 125IBNtxA (0.1 nM), mean ± SEM
# T1 construct: expressed in transfected cells
# mKOR [2] = biological target: T2, mKOR (Mus musculus, UniProt P33534); experiment: Radioligand competition binding ([125I]IBNtxA), CHO membranes, mKOR; conditions: vs 125IBNtxA (0.1 nM), mean ± SEM
# T2 construct: expressed in transfected cells
# mDOR [3] = biological target: T3, mDOR (Mus musculus, UniProt P32300); experiment: Radioligand competition binding ([125I]IBNtxA), CHO membranes, mDOR; conditions: vs 125IBNtxA (0.1 nM), CHO membranes, mean ± SEM
# T3 construct: expressed in transfected cells
# mMOR [4] = biological target: T1, mMOR; experiment: [35S]GTPγS functional assay, mMOR; assay type: biochemical
# mKOR [5] = biological target: T2, mKOR; experiment: [35S]GTPγS functional assay, mKOR; assay type: biochemical
# mDOR [6] = biological target: T3, mDOR; experiment: [35S]GTPγS functional assay, mDOR; assay type: biochemical
# hMOR [7] = biological target: T4, hMOR (Homo sapiens, UniProt P35372); experiment: cell-based; assay type: cell-based
# T4 construct: expressed in transfected cells; host or cells: HEK 293T (ATCC CRL-11268), transient
# hMOR [8] = biological target: T4, hMOR; experiment: Tango β-arrestin recruitment assay, hMOR; assay type: cell-based
# hKOR [9] = biological target: T5, hKOR (Homo sapiens, UniProt P41145); experiment: cAMP inhibition assay (GloSensor, HEK 293T), hKOR; assay type: cell-based; conditions: for Bias factor toward G protein, hKOR: cAMP inhibition vs Tango, against U50,488H as control
# T5 construct: expressed in transfected cells; host or cells: HEK 293T (ATCC CRL-11268), transient
# hKOR [10] = biological target: T5, hKOR; experiment: Tango β-arrestin recruitment assay, hKOR; assay type: cell-based
# [11] = biological target: T6, mouse mu opioid receptor (mMOR) (Mus musculus, UniProt P42866); experiment: cell-based; assay type: cell-based
# T6 construct: expressed in transfected cells; host or cells: HEK-293T, transient (PEI), with BRET sensor cDNAs
# [12] = biological target: T6, mouse mu opioid receptor (mMOR); experiment: cell-based; assay type: cell-based; remark: listed apart in the source
# [13] = biological target: T7, rat kappa opioid receptor (rKOR) (Rattus norvegicus, UniProt P34975); experiment: BRET assay, G-protein activation, rKOR; assay type: cell-based; conditions: for Bias factor toward G-protein, rKOR: BRET assays, against U50,488H as control; for EC50: read-out: Gi EC50 rKOR
# T7 construct: expressed in transfected cells; host or cells: HEK-293T, transient (PEI), with BRET sensor cDNAs
# [14] = biological target: T7, rat kappa opioid receptor (rKOR); experiment: BRET assay, arrestin recruitment, rKOR; assay type: cell-based
# [15] = biological target: T8, mouse delta opioid receptor (mDOR) (Mus musculus, UniProt P32300); experiment: BRET assay, G-protein activation, mDOR; assay type: cell-based
# T8 construct: expressed in transfected cells; host or cells: HEK-293T, transient (PEI), with BRET sensor cDNAs
# [16] = biological target: T8, mouse delta opioid receptor (mDOR); experiment: BRET assay, arrestin recruitment, mDOR; assay type: cell-based
# hDOR [17] = biological target: T9, hDOR (Homo sapiens, UniProt P41143); experiment: cAMP inhibition assay, hDOR; assay type: cell-based; set-up: expressed in transfected cells
# hDOR [18] = biological target: T9, hDOR; experiment: Tango β-arrestin recruitment assay, hDOR; assay type: cell-based; set-up: expressed in transfected cells; host or cells: HTLA cells expressing TEV fused-beta-Arrestin2
# Y312W-hKOR [19] = biological target: T10, Y312W-hKOR (Homo sapiens, UniProt P41145, Y312W); experiment: Tango-arrestin recruitment assay, Y312W-hKOR mutant; assay type: cell-based; set-up: expressed in transfected cells
# Y312W-hKOR [20] = biological target: T10, Y312W-hKOR; experiment: cAMP inhibition assay, Y312W-hKOR mutant; assay type: cell-based; set-up: expressed in transfected cells; host or cells: HEK 293T (inferred from the general cAMP method)
# [21] = BRET, normalized to Emax of U50,488H
# [22] = mDOR, BRET, normalized to DPDPE
# [23] = read-out: Arrestin recruitment Emax % ± SEM
smiles,measurement,setting,value
"O=C(N[C@@H]1CC[C@@]2(O)[C@H]3Cc4ccc(O)c5c4[C@@]2(CCN3CC2CC2)[C@H]1O5)c1cccc(I)c1 [IBNtxA, reference compound]",Ki,mMOR [1],0.11 ± 0.02 nM
same,Ki,mKOR [2],0.03 ± 0.001 nM
same,Ki,mDOR [3],0.24 ± 0.05 nM
same,EC50,"mMOR [4]; [35S]GTPγS, nM ± SEM",0.49 ± 0.12 nM
same,mMOR Emax,"mMOR [4]; [35S]GTPγS, relative to DAMGO",101 ± 3%
same,EC50,"mKOR [5]; [35S]GTPγS, nM ± SEM",0.22 ± 0.02 nM
same,mKOR Emax,"mKOR [5]; [35S]GTPγS, relative to U50,488H",102 ± 4%
same,EC50,"mDOR [6]; [35S]GTPγS, nM ± SEM",4.08 ± 0.67 nM
same,mDOR Emax,"mDOR [6]; [35S]GTPγS, relative to DPDPE",95 ± 2%
same,"Bias factor toward G protein, hMOR",hMOR [7],23
same,Gi Emax hMOR,hMOR [7],95±2
same,Gi pEC50±SEM hMOR,hMOR [7],10.2±0.006
same,EC50,hMOR [7]; read-out: Gi EC50 hMOR,0.07 nM
same,Arrestin pEC50±SEM hMOR,hMOR [8]; Tango,8.2±0.002
same,EC50,hMOR [8]; Tango,5.86 nM
same,Arrestin Emax hMOR,"hMOR [8]; Tango, normalized to Emax of DAMGO",29±0.02
same,"Bias factor toward G protein, hKOR",hKOR [9],0.2
same,Gi Emax hKOR,"hKOR [9]; cAMP inhibition, normalized to Emax of U50,488H",106±0.7
same,Arrestin pEC50±SEM hKOR,"hKOR [10]; Tango, WT-hKOR",10.9±0.07
same,EC50,"hKOR [10]; Tango, WT-hKOR",0.013 nM
same,Arrestin Emax hKOR,"hKOR [10]; Tango, normalized to Emax of U50,488H",109±1.8
same,"Bias factor toward G-protein, mMOR",[11],404
same,Gi Emax mMOR,[11],59±2.2
same,Gi pEC50±SEM mMOR,[11],10.3±0.02
same,EC50,[11]; read-out: Gi EC50 mMOR,0.054 nM
same,Arrestin Emax mMOR,[12],75±13.9
same,Arrestin pEC50±SEM mMOR,[12],4.9±0.3
same,EC50,[12]; read-out: Arrestin EC50 mMOR,11300 nM
same,Gi pEC50±SEM rKOR,[13]; BRET,10.2±0.1
same,"Bias factor toward G-protein, rKOR",[13],0.6
same,Gi Emax rKOR,[13]; [21],101±2.3
same,EC50,[13]; BRET,0.064 nM
same,Arrestin pEC50±SEM rKOR,[14]; BRET,8.9±0.02
same,EC50,[14]; BRET,1.23 nM
same,Arrestin Emax rKOR,[14]; [21],133±7.3
same,EC50,"[15]; mDOR, BRET",0.48 nM
same,G-Protein activation pEC50 ± SEM,"[15]; mDOR, BRET",9.3 ± 0.10
same,G-Protein activation Emax % ± SEM,[15]; [22],108 ± 3.7%
same,Arrestin recruitment pEC50 ± SEM,"[16]; mDOR, BRET",7.5 ± 0.2
same,EC50,"[16]; mDOR, BRET",26.6 nM
same,Arrestin recruitment Emax % ± SEM,[16]; [22],88 ± 6.8%
same,EC50,hDOR [17]; hDOR,0.43 nM
same,cAMP inhibition pEC50 ± SEM,hDOR [17]; hDOR,9.3 ± 0.03
same,cAMP inhibition Emax % ± SEM,"hDOR [17]; hDOR, normalized to DPDPE or DADLE",106 ± 1%
same,Arrestin recruitment pEC50 ± SEM,"hDOR [18]; hDOR, Tango",7.8 ± 0.06
same,EC50,"hDOR [18]; hDOR, Tango",14.1 nM
same,Arrestin recruitment Emax % ± SEM,"hDOR [18]; hDOR, Tango, normalized to DPDPE or DADLE",224 ± 5%
"O=C(N[C@@H]1CCC2C3Cc4ccc(O)c5c4C2(CCN3CC2CC2)C1O5)c1cccc(I)c1 (stereo partly drawn) [MP1202, N-((7R,1265)-3-(Cyclopropylmethyl)-9-hydroxy-2,3,4,4a,5,6,7,7a-octahydro-1H-4,12-methanobenzofuro[3,2-e]isoquinolin-7-yl)-3-iodobenzamide]",Emax,mMOR [4],68 ± 1%
same,Emax,mKOR [5],94 ± 5%
same,Emax,mDOR [6],71 ± 2%
same,"Bias factor toward G protein, hMOR",hMOR [7],31
same,EC50,hMOR [7],0.077 nM
same,Emax,"hMOR [7]; HEK-293T, read-out: Gi Emax hMOR",92 ± 1.4%
same,Emax,hMOR [8],53 ± 2%
same,EC50,hMOR [8]; Tango,26.8 nM
same,Emax,"hKOR [9]; HEK-293T, read-out: Gi Emax hKOR",110 ± 1%
same,"Bias factor toward G protein, hKOR",hKOR [9],0.6
same,EC50,"hKOR [9]; cAMP inhibition, read-out: Gi EC50 hKOR",0.0016 nM
same,Emax,hKOR [10],101 ± 1%
same,EC50,"hKOR [10]; Tango, WT-hKOR",0.0457 nM
same,"Bias factor toward G-protein, mMOR",[11],58
same,Emax,[11]; read-out: Gi Emax mMOR,61 ± 1.5%
same,Emax,[12]; read-out: Arrestin Emax mMOR,53 ± 1.6%
same,"Bias factor toward G-protein, rKOR",[13],0.39 and 0.4
same,EC50,[13]; BRET,0.134 nM
same,Emax,[13]; read-out: Gi Emax rKOR,104 ± 2%
same,Emax,[14],77 ± 5%
same,EC50,[14]; BRET,1.44 nM
same,Emax,[15]; read-out: G-Protein activation Emax % ± SEM,103 ± 4.6%
same,EC50,"[16]; mDOR, BRET",525 nM
same,Emax,[16]; [23],26 ± 2.3%
same,EC50,hDOR [17]; hDOR,8.18 nM
same,Emax,hDOR [17]; read-out: cAMP inhibition Emax % ± SEM,99 ± 2.2%
same,Emax,Y312W-hKOR [19],55 ± 2.6%
same,EC50,Y312W-hKOR [19]; Tango,3.4 nM
same,arrestin recruitment at Y312W-hKOR,"Y312W-hKOR [19]; Tango, compared with wild-type KOR",reduced arrestin recruitment
same,EC50,"hDOR [18]; hDOR, Tango",18.1 nM
same,Emax,hDOR [18]; [23],26 ± 3.1%
same,"Bias factor toward G-protein, Y312W-hKOR","Y312W-hKOR [20]; cAMP inhibition vs Tango, against U50,488H as control",33 and 34
same,EC50,"Y312W-hKOR [20]; cAMP inhibition, read-out: Gi pEC50±SEM Y312W-hKOR (converted)",0.0204 nM
same,Emax,Y312W-hKOR [20]; read-out: Gi Emax Y312W-hKOR,101 ± 1.5%
